Tested on: 266295-075-R-J1-PDC spheroid viability
Test: Anticancer human tumor 266295-075-R-J1-PDC patient-derived head and neck squamous carcinoma cell line growth inhibition [POLQ]
Conditions: spheroids with HUVEC and MSC; for IC50: curve of first compound; for viability, T/C: stronger effect = lower value
Outline: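 Complex spheroid viability model combining PDC tumour cells with endothelial (HUVEC) and MSC stromal cells. Novobiocin, ART-558 or RP6685 were tested singly and in combination with standard and investigational anticancer drugs. Each was titrated in half-log steps from near clinical Cmax, or from 10 microM where Cmax was unknown.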

[1] = second compound 0.0316 µM, first compound 0.0316 µM
[2] = second compound 0.0316 µM, first compound 0.1 µM
[3] = second compound 0.0316 µM, first compound 0.316 µM
[4] = second compound 0.0316 µM, first compound 1 µM
[5] = second compound 0.0316 µM, first compound 3.16 µM
[6] = second compound 0.0316 µM, first compound 10 µM
[7] = second compound 0.1 µM, first compound 0.0316 µM
[8] = second compound 0.1 µM, first compound 0.1 µM
[9] = second compound 0.1 µM, first compound 0.316 µM
[10] = second compound 0.1 µM, first compound 1 µM
[11] = second compound 0.1 µM, first compound 3.16 µM
[12] = second compound 0.1 µM, first compound 10 µM
[13] = second compound 0.316 µM, first compound 0.0316 µM
[14] = second compound 0.316 µM, first compound 0.1 µM
[15] = second compound 0.316 µM, first compound 0.316 µM
[16] = second compound 0.316 µM, first compound 1 µM
[17] = second compound 0.316 µM, first compound 3.16 µM
[18] = second compound 0.316 µM, first compound 10 µM
[19] = second compound 1 µM, first compound 0.0316 µM
[20] = second compound 1 µM, first compound 0.1 µM
[21] = second compound 1 µM, first compound 0.316 µM
[22] = second compound 1 µM, first compound 1 µM
[23] = second compound 1 µM, first compound 3.16 µM
[24] = second compound 1 µM, first compound 10 µM
[25] = second compound 3.16 µM, first compound 0.0316 µM
[26] = second compound 3.16 µM, first compound 0.1 µM
[27] = second compound 3.16 µM, first compound 0.316 µM
[28] = second compound 3.16 µM, first compound 1 µM
[29] = second compound 3.16 µM, first compound 3.16 µM
[30] = second compound 3.16 µM, first compound 10 µM
[31] = second compound 10 µM, first compound 0.0316 µM
[32] = second compound 10 µM, first compound 0.1 µM
[33] = second compound 10 µM, first compound 0.316 µM
[34] = second compound 10 µM, first compound 1 µM
[35] = second compound 10 µM, first compound 3.16 µM
[36] = second compound 10 µM, first compound 10 µM
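Also: spheroids exposed to compounds for seven days before readout.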

Compound `C=CC(=O)N1CCN(c2nc(=O)n(-c3c(C)ccnc3C(C)C)c3nc(-c4c(O)cccc4F)c(F)cc23)C(C)C1` (stereo unspecified) + COC1C(OC(N)=O)C(O)C(Oc2ccc3c(O)c(NC(=O)c4ccc(O)c(CC=C(C)C)c4)c(=O)oc3c2C)OC1(C)C has an IC50 (second compound 0.0316 µM) of over 10 µM, an IC50 (second compound 0.1 µM) of over 10 µM and an IC50 (second compound 0.316 µM) of over 10 µM. For the same compound, the IC50 (second compound 1 µM) was over 10 µM, the IC50 (second compound 3.16 µM) was over 10 µM and the IC50 (second compound 10 µM) was over 10 µM. It also gave a viability, T/C [1] of 88.8%, a viability, T/C [2] of 94.7% and a viability, T/C [3] of 133%. The viability, T/C [4] was 118%, the viability, T/C [5] was 112% and the viability, T/C [6] was 112%. For the same compound, the viability, T/C [7] was 98.7%, the viability, T/C [8] was 90.6% and the viability, T/C [9] was 94%. For the same compound, the viability, T/C [10] was 104%, the viability, T/C [11] was 96% and the viability, T/C [12] was 129%. It also gave a viability, T/C [13] of 96.9%, a viability, T/C [14] of 103% and a viability, T/C [15] of 104%. It also gave a viability, T/C [16] of 106%, a viability, T/C [17] of 125% and a viability, T/C [18] of 105%. For the same compound, the viability, T/C [19] was 85.9%, the viability, T/C [20] was 114% and the viability, T/C [21] was 93.4%. For the same compound, the viability, T/C [22] was 106%, the viability, T/C [23] was 139% and the viability, T/C [24] was 124%. It also gave a viability, T/C [25] of 92.2%, a viability, T/C [26] of 98.4% and a viability, T/C [27] of 108%. For the same compound, the viability, T/C [28] was 112%, the viability, T/C [29] was 116% and the viability, T/C [30] was 117%. The viability, T/C [31] was 97%, the viability, T/C [32] was 79.3% and the viability, T/C [33] was 92.5%. It also gave a viability, T/C [34] of 122%, a viability, T/C [35] of 109% and a viability, T/C [36] of 114%.
For `COc1cc(C2c3cc4c(cc3C(OC3OC5COC(C)OC5C(O)C3O)C3COC(=O)C23)OCO4)cc(OC)c1O` (stereo unspecified) + COC1C(OC(N)=O)C(O)C(Oc2ccc3c(O)c(NC(=O)c4ccc(O)c(CC=C(C)C)c4)c(=O)oc3c2C)OC1(C)C, the IC50 (second compound 0.0316 µM) was over 10 µM, the IC50 (second compound 0.1 µM) was over 10 µM and the IC50 (second compound 0.316 µM) was over 10 µM. It also gave an IC50 (second compound 1 µM) of over 10 µM, an IC50 (second compound 3.16 µM) of over 10 µM and an IC50 (second compound 10 µM) of over 10 µM. The viability, T/C [1] was 81.4%, the viability, T/C [2] was 118% and the viability, T/C [3] was 93.5%. For the same compound, the viability, T/C [4] was 89.6%, the viability, T/C [5] was 89.1% and the viability, T/C [6] was 76.9%. The viability, T/C [7] was 88.7%, the viability, T/C [8] was 105% and the viability, T/C [9] was 110%. It also gave a viability, T/C [10] of 83.2%, a viability, T/C [11] of 85.1% and a viability, T/C [12] of 77.4%. The viability, T/C [13] was 90.1%, the viability, T/C [14] was 98.5% and the viability, T/C [15] was 89.8%. The viability, T/C [16] was 87%, the viability, T/C [17] was 83.3% and the viability, T/C [18] was 82%. The viability, T/C [19] was 101%, the viability, T/C [20] was 92.1% and the viability, T/C [21] was 86.3%. For the same compound, the viability, T/C [22] was 96.9%, the viability, T/C [23] was 91.1% and the viability, T/C [24] was 72.2%. For the same compound, the viability, T/C [25] was 102%, the viability, T/C [26] was 91.2% and the viability, T/C [27] was 114%. It also gave a viability, T/C [28] of 94.7%, a viability, T/C [29] of 99% and a viability, T/C [30] of 83%. The viability, T/C [31] was 116%, the viability, T/C [32] was 116% and the viability, T/C [33] was 120%. For the same compound, the viability, T/C [34] was 92.4%, the viability, T/C [35] was 110% and the viability, T/C [36] was 80.5%.
In the case of `COc1cc2cc(C(=O)CCC(=O)O)sc2cc1OC` + COC1C(OC(N)=O)C(O)C(Oc2ccc3c(O)c(NC(=O)c4ccc(O)c(CC=C(C)C)c4)c(=O)oc3c2C)OC1(C)C, the IC50 (second compound 0.0316 µM) is reported as over 10 µM, the IC50 (second compound 0.1 µM) is reported as over 10 µM and the IC50 (second compound 0.316 µM) is reported as over 10 µM. The IC50 (second compound 1 µM) was over 10 µM, the IC50 (second compound 3.16 µM) was over 10 µM and the IC50 (second compound 10 µM) was over 10 µM. The viability, T/C [1] was 99.4%, the viability, T/C [2] was 95.9% and the viability, T/C [3] was 114%. For the same compound, the viability, T/C [4] was 101%, the viability, T/C [5] was 95.4% and the viability, T/C [6] was 82.4%. The viability, T/C [7] was 69.1%, the viability, T/C [8] was 90.1% and the viability, T/C [9] was 96.8%. It also gave a viability, T/C [10] of 120%, a viability, T/C [11] of 93.8% and a viability, T/C [12] of 93.3%. The viability, T/C [13] was 97.7%, the viability, T/C [14] was 91.6% and the viability, T/C [15] was 92.4%. The viability, T/C [16] was 99.2%, the viability, T/C [17] was 91.5% and the viability, T/C [18] was 87.6%. It also gave a viability, T/C [19] of 100%, a viability, T/C [20] of 96.4% and a viability, T/C [21] of 97.8%. For the same compound, the viability, T/C [22] was 111%, the viability, T/C [23] was 93.2% and the viability, T/C [24] was 93.4%. It also gave a viability, T/C [25] of 99.5%, a viability, T/C [26] of 90.2% and a viability, T/C [27] of 95.6%. The viability, T/C [28] was 112%, the viability, T/C [29] was 90.7% and the viability, T/C [30] was 90.1%. For the same compound, the viability, T/C [31] was 114%, the viability, T/C [32] was 90.6% and the viability, T/C [33] was 96.5%. For the same compound, the viability, T/C [34] was 98.5%, the viability, T/C [35] was 120% and the viability, T/C [36] was 90.2%.
